These results are taken from patent US20200247855A1, “THERAPY AND DIAGNOSTICS” (OXFORD UNIVERSITY INNOVATION LIMITED, priority 2017, published 2020).

No end group written: not given here.

Common to all, as to assay type: binding
The target of assay [1] is T1, His-tagged P672-biotinylated CCL2 interaction (Homo sapiens, UniProt P13500).
T1 construct: host or cells: P672: HEK293F (in-house); biotinylated CCL2: not described
Kind of assay: AlphaScreen disruption of P672:chemokine interaction. As to the method: (§1) B-D. Effect of indicated peptides at a concentration of 100 μM on a His-tagged P672-biotinylated CCL8, CCL2 or CCL3 interaction respectively using an AlphaScreen assay. In each panel. […] Data are presented as mean±s.e.m. of three independent experiments, shown as individual data points.
(§2) Data are shown as mean of two technical replicates. Curves were fitted with 4 parameters to estimate IC50.
(§3) The binding of these peptides to CCL8 was assayed by examining their ability to disrupt the P672:CCL8 interaction using an AlphaScreen assay (FIG. 20E, H). […] BK1 derivatives were tested for their ability to inhibit P672 interactions with CCL2 and CCL3 using AlphaScreen (FIG. 20 F, G, I, J).
(§4) AlphaScreen® Histidine detection kit was purchased from PerkinElmer (6760619M lot: 2457886) and the assay was set up in white bottom Proxiplate™ 384 Plus microplates (PerkinElmer) following the manufacturer's instructions. The assay buffer used was 50 mM HEPES, 150 mM NaCl, 0.1% BSA, 0.01% Tween20, 1% DMSO, pH 7.5 and the final volume in each well was 20 μL. Briefly, biotinylated chemokine (recombinant, final concentration 1.25 nM (CCL8), 5 nM (CCL2) and 2.5 nM (CCL3)) was pre-incubated at room temperature for 15 min with different concentrations of each peptide. His-tagged P672 (final concentration 2.5 nM (CCL8), 5 nM (CCL2) and 1.25 nM (CCL3)) was then added to each well and the plate was incubated at room temperature for 30 min. Finally, acceptor and donor beads were added as a 1:1 suspension in buffer to each well and the plate was further incubated at RT for 1 h. Data was obtained by reading the plate using a Pherastar FSX plate reader (excitation 680 nm, emission 570 nm) and was analysed using GraphPad Prism.
For orientation: Bead proximity is the source of the signal in Alpha formats.

The target of assay [2] is T2, His-tagged P672-biotinylated CCL3 interaction (Homo sapiens, UniProt P10147).
T2 construct: host or cells: P672: HEK293F (in-house); biotinylated CCL3: not described
T2 sequence (P10147 24-92): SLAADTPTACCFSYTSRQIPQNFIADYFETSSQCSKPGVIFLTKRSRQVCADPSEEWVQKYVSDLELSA
The assay is described as above. As to conditions: AlphaScreen dose-response. The protocol:
as §1, §2, §3, §4

For another assay, the target named is T3, CCL18 (Homo sapiens, UniProt P55774).
T3 construct: purchased Peprotech
T3 sequence (P55774 21-89): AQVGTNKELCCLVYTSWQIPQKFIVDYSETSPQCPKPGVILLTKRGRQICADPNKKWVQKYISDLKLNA
Kind of assay: Fluorescence polarisation (anisotropy) assay. As to conditions: fluorescence polarisation displacement assay. The protocol: (§5) FIG. 14(B). Fluorescence polarisation assay showing binding of chemokines to P672_PEP-FITC. The measured fluorescence anisotropy (y-axis) of P672_PEP-FITC (50 nM) following binding to a fixed dose (1 μM)) of CCL7, CCL8, CCL18 and CXCL1 (negative control). […] Statistical significance was determined using one-way ANOVA with Sidak's correction for multiple comparisons using Graph Pad Prism 6. **=p<0.005, ****=P<0.00005, ns=not significant.
(§6) FIG. 15(C). Displacement of P672_PEP-FITC from CCL18 by P672_PEP. In each case 100 μM (++) or […] (+) of P672_PEP was incubated with P672_PEP-FITC (50 nM)/chemokine (1 μM CCL7 and CCL18; 500 nM CCL8) and the resulting anisotropy measured. A peptide with the P672_PEP sequence scrambled ([…]) served as a negative control (P672_PEP_SCRAM; […]). Experiment carried out in triplicate where each data point is the average of one experiment carried out in technical triplicate. Mean with SEM shown and statistical significance was determined using one-way ANOVA with Sidak's correction for multiple comparisons using Graph Pad Prism 6. *=p<0.05, ***=p<0.0005, ****=P<0.00005, ns=not significant.
(§7) Fluorescence polarization assays were performed using a Clariostar (BMG Tech) plate reader with the supplied FITC excitation and emission filters using 96 half area well plates (Corning). The buffer used (FP assay buffer) was 50 mM HEPES, 150 mM NaCl, 0.1% BSA, 0.002% TWEEN-20, 0.2% DMSO, pH 7.4 and the final volume in each well was 30 μL. Polarization was converted to anisotropy using the equation A=(2*P)/(3−P) where P is polarization and A is anisotropy. For each peptide tested the gain was set to 35 mP and adjusted to a well containing fluorescent peptide only. The polarization of the emitted light in the FITC emission channel was then determined. Experiments were performed as two technical and three biological replicates. Screening of P672 peptide fragments was achieved through incubation of each peptide (50 nM) with 1 μM CCL8 (Peprotech) for 30 minutes in FP assay buffer and the resulting anisotropy of the emitted light determined as above. The chemokine cross binding screen was performed by incubating 1 μM chemokine (Peprotech) with 50 nM BK1.1FITC for half an hour in FP assay buffer and the resulting anisotropy of the emitted light determined as above. To monitor BK1.1FITC Ala mutants of binding to CCL8, 50 nM labelled peptide was incubated with varying concentrations of recombinant CCL8 (0-25 μM, final) in 30 μL FP assay buffer for 30 minutes and the resulting anisotropy of the emitted light determined as above. The anisotropy was plotted as a function of CCL8 concentration and fitted to the equation: Y=Bmax*X/(KD+X)+NS*X+Background, where Y is the measured anisotropy, X is the concentration of CCL8 added, Bmax is the maximum binding, KD is the equilibrium dissociation constant, NS is the slope of the nonlinear regression and Background is the anisotropy when no CCL8 is present, in Graph Pad Prism. Displacement assays were carried out with CCL7, CCL8, and CCL18 (Peprotech, 1 μM). […] For all FP assays, the experiments were carried out as two technical and three biological replicates.

The target in the next assay is T4, CCL7 (Homo sapiens, UniProt P80098).
T4 construct: purchased Peprotech
T4 sequence (P80098 24-99): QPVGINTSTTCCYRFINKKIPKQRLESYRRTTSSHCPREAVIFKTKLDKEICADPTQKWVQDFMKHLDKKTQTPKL
Kind of assay: Fluorescence polarisation (anisotropy) assay. The conditions noted are these: fluorescence polarisation displacement assay. As to the method:
as §5, §6, §7
A general note: Fluorescence polarisation rises when a labelled molecule tumbles more slowly, as on binding a larger partner.

T1 sequence (P13500 24-99): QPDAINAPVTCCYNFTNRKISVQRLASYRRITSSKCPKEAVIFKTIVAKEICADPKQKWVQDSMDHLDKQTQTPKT

For EDEDYEDFFKPVTAYF-NH2 [BK1.1], the “Inhibition of P672 interaction with CCL2 (BK1 derivatives)” value in assay [1] (AlphaScreen dose-response) is given as “did not inhibit”. In assay [1] (AlphaScreen, peptide 100 μM), the “Disruption of the P672-CCL2 interaction” value is reported as “disrupted”. Moreover, the “Inhibition of P672 interaction with CCL3 (BK1 derivatives)” value in assay [2] is given as “did not inhibit”. The “Displacement of FITC-labelled peptide from CCL18 by unlabelled peptide” value at CCL18 is on record as “indicate its binding”; on CCL18 (listed as P672_PEP), “able to displace labelled peptide bound to chemokine”. Moreover, the results for the “Displacement of FITC-labelled peptide from CCL7 by unlabelled peptide” value on CCL7 and at CCL7 (listed as P672_PEP) were “indicate its binding” and “able to displace labelled peptide bound to chemokine”, respectively.
